Structures can show the parent of a compound that is named as a salt.
Key:
human TLR8 = biological target: T1, human TLR8 (Homo sapiens, UniProt Q9NR97); test: In vitro human TLR8 binding reporter assay (HEK-Blue, NF-kB/AP1-inducible SEAP); assay type: cell-based; conditions: HEK-Blue human TLR8 SEAP reporter cells; activity range classes; read-out: TLR8 Agonist EC50
T1 construct: host or cells: human HEK-Blue cells (HEK293-derived) co-expressing TLR8 and an NF-kB/AP1-inducible SEAP reporter
T1 sequence (Q9NR97 27-1041): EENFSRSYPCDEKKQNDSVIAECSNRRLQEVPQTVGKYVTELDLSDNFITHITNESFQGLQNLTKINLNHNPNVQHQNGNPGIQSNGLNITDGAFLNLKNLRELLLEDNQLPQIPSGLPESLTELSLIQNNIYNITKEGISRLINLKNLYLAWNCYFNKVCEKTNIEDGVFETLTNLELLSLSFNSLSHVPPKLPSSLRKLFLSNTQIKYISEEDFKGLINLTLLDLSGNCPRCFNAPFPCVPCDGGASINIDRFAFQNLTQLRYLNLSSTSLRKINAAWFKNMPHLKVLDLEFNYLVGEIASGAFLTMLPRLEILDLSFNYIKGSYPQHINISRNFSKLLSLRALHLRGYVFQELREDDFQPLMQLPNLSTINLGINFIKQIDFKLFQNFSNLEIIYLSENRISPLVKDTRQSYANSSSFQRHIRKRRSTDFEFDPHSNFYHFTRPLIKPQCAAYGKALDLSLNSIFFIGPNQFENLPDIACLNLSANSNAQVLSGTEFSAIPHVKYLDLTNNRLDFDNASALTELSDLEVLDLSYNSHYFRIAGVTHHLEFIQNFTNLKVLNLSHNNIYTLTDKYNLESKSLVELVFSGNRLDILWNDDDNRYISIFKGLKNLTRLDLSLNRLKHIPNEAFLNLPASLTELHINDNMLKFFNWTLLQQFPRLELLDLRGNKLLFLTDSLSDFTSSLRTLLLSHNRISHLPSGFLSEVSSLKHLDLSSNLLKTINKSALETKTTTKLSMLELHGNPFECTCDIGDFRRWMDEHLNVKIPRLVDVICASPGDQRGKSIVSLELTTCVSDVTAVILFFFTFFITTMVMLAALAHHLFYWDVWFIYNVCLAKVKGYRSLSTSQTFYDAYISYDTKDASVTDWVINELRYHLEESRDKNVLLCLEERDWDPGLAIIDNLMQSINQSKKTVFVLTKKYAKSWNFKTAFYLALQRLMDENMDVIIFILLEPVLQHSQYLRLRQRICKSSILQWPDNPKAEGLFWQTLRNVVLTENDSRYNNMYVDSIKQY
Procedure, shortened: (§1)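 EC50s come from NF-kB/AP1-driven SEAP secretion in HEK-Blue cells expressing TLR7 or TLR8, measured with Quanti-Blue after an 18 h compound incubation. Maximal response is defined by a 50 μM reference standard.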

human TLR7 = biological target: T2, human TLR7 (Homo sapiens, UniProt Q9NYK1); test: In vitro human TLR7 binding reporter assay (HEK-Blue, NF-kB/AP1-inducible SEAP); assay type: cell-based; conditions: HEK-Blue human TLR7 SEAP reporter cells; activity range classes; read-out: TLR7 Agonist EC50
T2 construct: host or cells: human HEK-Blue cells (HEK293-derived) co-expressing TLR7 and an NF-kB/AP1-inducible SEAP reporter
T2 sequence (Q9NYK1 27-1049): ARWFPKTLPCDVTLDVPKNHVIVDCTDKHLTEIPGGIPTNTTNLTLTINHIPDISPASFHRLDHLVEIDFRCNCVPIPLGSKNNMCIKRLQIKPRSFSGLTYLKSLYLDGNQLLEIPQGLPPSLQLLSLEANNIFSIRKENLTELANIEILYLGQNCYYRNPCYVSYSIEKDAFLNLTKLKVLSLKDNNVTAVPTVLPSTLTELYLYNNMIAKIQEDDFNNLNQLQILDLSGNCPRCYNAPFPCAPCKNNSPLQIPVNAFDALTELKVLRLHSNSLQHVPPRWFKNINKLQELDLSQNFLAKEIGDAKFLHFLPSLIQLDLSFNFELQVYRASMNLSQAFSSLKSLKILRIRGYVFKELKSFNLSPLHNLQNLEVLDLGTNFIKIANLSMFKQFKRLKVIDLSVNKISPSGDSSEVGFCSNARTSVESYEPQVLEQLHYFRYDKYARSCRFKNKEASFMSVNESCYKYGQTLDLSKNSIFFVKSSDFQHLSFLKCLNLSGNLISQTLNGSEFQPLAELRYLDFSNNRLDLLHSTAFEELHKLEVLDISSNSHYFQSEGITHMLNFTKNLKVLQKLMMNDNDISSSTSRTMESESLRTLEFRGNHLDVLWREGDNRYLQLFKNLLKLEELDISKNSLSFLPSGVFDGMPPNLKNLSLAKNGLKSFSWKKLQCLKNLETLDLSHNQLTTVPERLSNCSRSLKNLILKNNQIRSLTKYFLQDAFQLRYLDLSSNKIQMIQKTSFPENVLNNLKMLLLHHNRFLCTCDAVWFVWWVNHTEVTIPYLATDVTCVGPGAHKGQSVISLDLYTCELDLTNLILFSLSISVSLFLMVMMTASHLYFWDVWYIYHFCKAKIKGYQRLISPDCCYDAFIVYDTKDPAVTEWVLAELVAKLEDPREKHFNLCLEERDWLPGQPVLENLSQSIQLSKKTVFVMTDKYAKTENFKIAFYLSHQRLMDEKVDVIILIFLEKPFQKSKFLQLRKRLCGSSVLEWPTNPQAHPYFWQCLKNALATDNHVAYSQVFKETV
Procedure, shortened: as §1

[1] = system: IL-1β production in PMA-differentiated THP-1 cells; test: Measurement of IL-1β production in PMA-differentiated THP-1 cells (ELISA, 4 hours); assay type: cell-based, human; conditions: Homo sapiens, THP-1, human IL-1β production, assayed using one or more of the described procedures, read-out: NLRP3 hIL1B IC50
Procedure, shortened: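 THP-1 cells differentiated with PMA (10 μg/ml, 24 h), replated at 1×10^6 cells/ml in RPMI with 2% FBS and exposed to compounds (e.g. 0.1–100 μM, 1% DMSO final) for 4 hours. IL-1β in cell-free supernatant quantified by ELISA against vehicle control.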

Compound | EC50 (human TLR8) [µM] | EC50 (human TLR7) [µM] | IC50 [1] [µM]
Nc1cc(NC[C@@H]2CCCNC2)c2ccc(-c3ccn[nH]3)cc2n1 [Compound 326] | > 100 | > 100 | 24.7
Nc1cc(NCC2CCNC2)c2ccc(-c3ccn[nH]3)cc2n1 (stereo not drawn) [Compound 327] | > 100 | > 100 | 4.66
Nc1cc(OCCc2ccsc2)c2ccc(-c3cc[nH]n3)cc2n1 [Compound 329, 7-(1H-pyrazol-3-yl)-4-(2-(thiophen-3-yl)ethoxy)quinolin-2-amine] | > 100 | > 100 | 0.67
Nc1cc(OCCc2ccsc2)c2ccc(-c3cccs3)cc2n1 [Compound 330] | > 100 | > 100 | 24.6
Nc1cc(OCCc2ccsc2)c2ccc(-c3ccsc3)cc2n1 [Compound 331] | > 100 | > 100 | 14.6
Nc1cc(OCC2(CO)COC2)c2ccc(-c3ccn[nH]3)cc2n1 [Compound 333] | > 100 | > 100 | 1.31
Nc1cc(OCC2(CO)CCC2)c2ccc(-c3ccn[nH]3)cc2n1 [Compound 335] | > 100 | > 100 | 0.63
Nc1cc(OCC2(CO)CCC2)c2ccc(-c3ccsc3)cc2n1 [Compound 336] | > 100 | > 100 | 2.03
Nc1cc(OCCCC(F)(F)F)c2ccc(-c3ccsc3)cc2n1 [Compound 337] | > 100 | > 100 | 9.17
Nc1cc(NCC2(CO)COC2)c2ccc(-c3ccsc3)cc2n1 [Compound 338, (3-(((2-amino-7-(thiophen-3-yl)quinolin-4-yl)amino)methyl)oxetan-3-yl)methanol] | > 100 | > 100 | 3.41
Nc1cc(NCCc2cccnn2)c2ccc(-c3cc[nH]n3)cc2n1 [Compound 340, 7-(1H-pyrazol-3-yl)-N4-(2-(pyridazin-3-yl)ethyl)quinolin-2,4-diamine] | > 100 | > 100 | 0.73
Nc1cc(NCCc2cccnn2)c2ccc(-c3ccsc3)cc2n1 [Compound 341, N4-(2-(pyridazin-3-yl)ethyl)-7-(thiophen-3-yl)quinolin-2,4-diamine] | > 100 | > 100 | 0.62
Nc1cc(NCCc2cccnn2)c2ccc(-c3cccs3)cc2n1 [Compound 342, N4-(2-(pyridazin-3-yl)ethyl)-7-(thiophen-2-yl)quinolin-2,4-diamine] | > 100 | > 100 | 1.1
Nc1cc(NCCC2CCOCC2)c2ccc(-c3ccsc3)cc2n1 [Compound 345, N4-(2-(tetrahydro-2H-pyran-4-yl)ethyl)-7-(thiophen-3-yl)quinoline-2,4-diamine] | > 100 | > 100 | 1.77
Nc1cc(-c2cnn(CCO)c2)c2ccc(-c3ccn[nH]3)cc2n1 [Compound 348, 2-(4-(2-amino-7-(1H-pyrazol-5-yl)quinolin-4-yl)-1H-pyrazol-1-yl)ethan-1-ol] | > 100 | > 100 | 7.26
Nc1cc(OC[C@H](O)CN2CCOCC2)c2ccc(-c3ccn[nH]3)cc2n1 [Compound 349, (R)-1-((2-amino-7-(1H-pyrazol-5-yl)quinolin-4-yl)oxy)-3-morpholinopropan-2-ol] | > 100 | > 100 | 5.8

Next, values leading:

EC50 (human TLR8) [µM] | EC50 (human TLR7) [µM] | IC50 [1] [µM] | Compound
> 100 | > 100 | 0.65 | Nc1cc(OCC2(CO)COC2)c2ccc(-c3ccsc3)cc2n1 [Compound 332, (3-(((2-amino-7-(thiophen-3-yl)quinolin-4-yl)oxy)methyl)oxetan-3-yl)methanol]
> 100 | > 100 | 2.62 | Nc1cc(OCC2(CO)CCC2)c2ccc(-c3cccs3)cc2n1 [Compound 334, (1-(((2-amino-7-(thiophen-2-yl)quinolin-4-yl)oxy)methyl)cyclobutyl)methanol]
> 100 | > 100 | 0.48 | Nc1cc(-c2ccn[nH]2)c2ccc(-c3ccn[nH]3)cc2n1 [Compound 339, 4,7-di(1H-pyrazol-5-yl)quinolin-2-amine, HCl]
> 100 | > 100 | 0.61 | Nc1cc(NCCc2cccnn2)c2ccc(-n3cccn3)cc2n1 [Compound 343, 7-(1H-pyrazol-1-yl)-N4-(2-(pyridazin-3-yl)ethyl)quinoline-2,4-diamine]
> 100 | > 100 | 1.11 | Nc1cc(NCCC2CCOCC2)c2ccc(-c3cc[nH]n3)cc2n1 [Compound 344, 7-(1H-pyrazol-3-yl)-N4-(2-(tetrahydro-2H-pyran-4-yl)ethyl)quinoline-2,4-diamine]
> 100 | > 100 | 1.18 | Nc1cc(-c2cn[nH]c2)c2ccc(-c3ccn[nH]3)cc2n1 [Compound 347, 4-(1H-pyrazol-4-yl)-7-(1H-pyrazol-5-yl)quinolin-2-amine]
> 100 | > 100 | 4.19 | Nc1cc(NCCC(=O)N2CCOCC2)c2ccc(-c3ccn[nH]3)cc2n1 [Compound 350, 3-((2-amino-7-(1H-pyrazol-5-yl)quinolin-4-yl)amino)-1-morpholinopropan-1-one]

— patent US12171756B2, “NLRP3 modulators” (Innate Tumor Immunity, Inc., priority 2017, dated 2024)
